Test results: BindingDB's records for patent US20250313563 (The Broad Institute, 2025)
“And” between values parts separate entries of the source, which are not always exact repeats. Equal entries are not always repeated.

Experiments:
[1] = molecular target: Glycogen synthase kinase-3 beta (Homo sapiens, UniProt P49841); test: TR-FRET Assay
Procedure, shortened: (§1)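 Compound was preincubated 30 min in assay buffer before the kinase reaction, which was quenched with EDTA. Phosphorylation was detected by TR-FRET after adding a solution of 40 nM streptavidin-d2 and 2 nM Tb-labelled anti-pSer641 antibody.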

[2] = molecular target: Glycogen synthase kinase-3 alpha (Homo sapiens, UniProt P49840); test: TR-FRET Assay
Glycogen synthase kinase-3 alpha, sequence (P49840 whole entry): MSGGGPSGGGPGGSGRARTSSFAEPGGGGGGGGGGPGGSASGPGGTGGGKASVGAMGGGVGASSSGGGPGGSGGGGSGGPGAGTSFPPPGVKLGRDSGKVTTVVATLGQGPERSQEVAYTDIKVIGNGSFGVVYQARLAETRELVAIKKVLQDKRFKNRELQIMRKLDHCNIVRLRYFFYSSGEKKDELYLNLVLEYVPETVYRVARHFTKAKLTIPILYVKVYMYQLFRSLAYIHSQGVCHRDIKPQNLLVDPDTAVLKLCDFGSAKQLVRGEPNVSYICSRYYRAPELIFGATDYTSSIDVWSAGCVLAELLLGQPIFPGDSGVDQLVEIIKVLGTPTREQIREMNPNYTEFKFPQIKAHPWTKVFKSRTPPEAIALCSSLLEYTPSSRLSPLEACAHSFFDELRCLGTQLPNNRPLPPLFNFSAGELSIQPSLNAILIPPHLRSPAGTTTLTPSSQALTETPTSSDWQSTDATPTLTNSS
Procedure, shortened: as §1

Glycogen synthase kinase-3 beta, sequence (P49841 whole entry): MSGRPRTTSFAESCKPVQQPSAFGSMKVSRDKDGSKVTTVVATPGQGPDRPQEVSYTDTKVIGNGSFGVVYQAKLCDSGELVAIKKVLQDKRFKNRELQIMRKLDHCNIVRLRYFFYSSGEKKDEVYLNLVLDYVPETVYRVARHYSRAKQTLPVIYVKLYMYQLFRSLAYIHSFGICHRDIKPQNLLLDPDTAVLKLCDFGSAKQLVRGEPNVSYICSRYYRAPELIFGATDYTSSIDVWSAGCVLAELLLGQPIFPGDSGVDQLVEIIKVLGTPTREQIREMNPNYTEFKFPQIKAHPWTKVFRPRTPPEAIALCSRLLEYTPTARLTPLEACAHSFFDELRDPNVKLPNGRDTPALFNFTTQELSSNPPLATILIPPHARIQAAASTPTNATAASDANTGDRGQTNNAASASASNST

Row | Compound | IC50 [1] | IC50 [2]
1 | CC[C@]1(c2cccc(N(C)c3ncccn3)c2)C2=C(N=NC2)NC2=C1C(=O)C(C)(C)C2 [US20250313563, Compound 952212] | 100 to 1000 nM and > 5000 nM | < 100 nM and 100 to 1000 nM
2 | CC[C@]1(c2cccc(-c3c(C#N)cnn3C)c2)C2=C(CC(C)(C)NC2=O)NC2N=NC(C)=C21 (some centres undefined) [US20250313563, Compound 952410] | < 100 nM and 1000 to 5000 nM | < 100 nM and 100 to 1000 nM
3 | CC1(C)CC(=O)C2=C(C1)NC1=C(CN=N1)[C@@]21CC[C@@H](C(F)(F)F)C1 [US20250313563, Compound 952436] | < 100 nM and 1000 to 5000 nM | < 100 nM and 1000 to 5000 nM
4 | CC[C@@]1(c2cccc(C(F)(F)F)c2)C2=CN=NC2NC2=C1C(=O)N(c1cn(C)c(C)n1)CC2 (some centres undefined) [US20250313563, Compound 952479] | > 5000 nM | > 5000 nM
5 | CC[C@@]1(c2cccc(-c3cc(C)nc4c3cnn4C)c2)C2=CN=NC2NC2=C1C(=O)NC(C)(C)C2 (some centres undefined) [US20250313563, Compound 952563] | > 5000 nM | 1000 to 5000 nM
6 | CC[C@]1(c2cccc(-c3c(F)cncc3OC)c2)C2=C(N=NC2)NC2=C1C(=O)C(C)(C)C2 [US20250313563, Compound 952564] | < 100 nM and 1000 to 5000 nM | < 100 nM and 100 to 1000 nM
7 | CC[C@@]1(c2cccc(-c3cnn4ccncc34)c2)C2=CN=NC2NC2=C1C(=O)NC(C)(C)C2 (some centres undefined) [US20250313563, Compound 952565] | 100 to 1000 nM and > 5000 nM | < 100 nM and 1000 to 5000 nM
8 | CC[C@@]1(c2cccc(C(F)(F)F)c2)C2=CN=NC2NC2=C1C(=O)N(c1ccsc1)CC2 (some centres undefined) [US20250313563, Compound 952636] | > 5000 nM | > 5000 nM
9 | CC[C@@]1(c2cccc(C(F)(F)F)c2)C2=CN=NC2NC2=C1C(=O)N(c1cscn1)CC2 (some centres undefined) [US20250313563, Compound 952638] | > 5000 nM | > 5000 nM
10 | CC[C@@]1(c2cccc(-c3ccncc3C(F)(F)F)c2)C2=C(N=NC2)NC2=C1C(=O)C(C)(C)C2 [US20250313563, Compound 952757] | > 5000 nM | 1000 to 5000 nM
11 | CC[C@]1(c2cccc(-c3ccncc3C(F)(F)F)c2)C2=C(N=NC2)NC2=C1C(=O)C(C)(C)C2 [US20250313563, Compound 952759] | < 100 nM and 1000 to 5000 nM | < 100 nM and 100 to 1000 nM
12 | CC[C@@]1(c2cccc(-c3c(C)cnc4c(C)cccc34)c2)C2=CN=NC2NC2=C1C(=O)NC(C)(C)C2 (some centres undefined) [US20250313563, Compound 952760] | > 5000 nM | > 5000 nM
13 | CC[C@@]1(c2cccc(-c3ccnc4ccncc34)c2)C2=CN=NC2NC2=C1C(=O)NC(C)(C)C2 (some centres undefined) [US20250313563, Compound 952910] | 100 to 1000 nM and > 5000 nM | < 100 nM and 100 to 1000 nM
14 | CC[C@]1(c2ccccc2)C2=CN=NC2NC2=C1C(=O)CC(C)(C)[C@@H]2F (some centres undefined) [US20250313563, Compound 957196] | > 5000 nM | > 5000 nM
15 | CC[C@]1(c2ccccc2)C2=CN=NC2NC2=C1C(=O)CC(C)(C)[C@H]2F (some centres undefined) [US20250313563, Compound 957197] | 1000 to 5000 nM and > 5000 nM | 100 to 1000 nM and > 5000 nM
16 | CC[C@@]1(c2ccccc2)C2=CN=NC2NC2=C1C(=O)CC(C)(C)[C@@H]2F (some centres undefined) [US20250313563, Compound 957199] | > 5000 nM | > 5000 nM
17 | CC[C@@]1(c2ccccc2)C2=CN=NC2NC2=C1C(=O)CC(C)(C)[C@H]2F (some centres undefined) [US20250313563, Compound 957200] | 100 to 1000 nM and > 5000 nM | 100 to 1000 nM and > 5000 nM
18 | CC[C@@]1(c2ccccc2)C2=CN=NC2NC2=C1C(=O)[C@H](F)C(C)(C)C2 (some centres undefined) [US20250313563, Compound 957404] | > 5000 nM | > 5000 nM
19 | CC[C@]1(c2ccccc2)C2=CN=NC2NC2=C1C(=O)[C@H](F)C(C)(C)C2 (some centres undefined) [US20250313563, Compound 957406] | > 5000 nM | > 5000 nM
20 | CC[C@@]1(c2cccc(C(F)(F)F)c2)C2=C(CC(C)(C)NC2=O)NC2N=NC(F)=C21 (some centres undefined) [US20250313563, Compound 957497] | > 5000 nM | > 5000 nM
21 | CC[C@]1(c2cccc(-c3cnn(C)c3)c2)C2=CN=NC2NC2=C1C(=O)CC(C)(C)[C@H]2F (some centres undefined) [US20250313563, Compound 957505] | 1000 to 5000 nM and > 5000 nM | < 100 nM and 1000 to 5000 nM
22 | CC[C@]1(c2cccc(-c3ccnn3C)c2)C2=CN=NC2NC2=C1C(=O)CC(C)(C)[C@@H]2F (some centres undefined) [US20250313563, Compound 957506] | 100 to 1000 nM and > 5000 nM | < 100 nM and 100 to 1000 nM
23 | CC[C@@]1(c2cccc(-c3ccnn3C)c2)C2=CN=NC2NC2=C1C(=O)CC(C)(C)[C@H]2F (some centres undefined) [US20250313563, Compound 957508] | > 5000 nM | > 5000 nM
24 | CC[C@@]1(c2cccc(-c3cnn(C)c3)c2)C2=CN=NC2NC2=C1C(=O)CC(C)(C)[C@@H]2F (some centres undefined) [US20250313563, Compound 957511] | 100 to 1000 nM and > 5000 nM | < 100 nM and 100 to 1000 nM

Second part, the compound after the results:

Row | IC50 [1] | IC50 [2] | Compound
25 | > 5000 nM | 100 to 1000 nM | CC[C@@]1(c2cccc(-c3cnn(-c4cccnc4)c3)c2)C2=CN=NC2NC2=C1C(=O)NC(C)(C)C2 (some centres undefined) [US20250313563, Compound 952024]
26 | < 100 nM and 1000 to 5000 nM | < 100 nM | CC[C@@]1(c2cccc(-c3ccncc3C(F)(F)F)c2)C2=CN=NC2NC2=C1C(=O)NC(C)(C)C2 (some centres undefined) [US20250313563, Compound 952025]
27 | 1000 to 5000 nM | 100 to 1000 nM | CC[C@@]1(c2cccc(-c3cnn(-c4cnccn4)c3)c2)C2=CN=NC2NC2=C1C(=O)NC(C)(C)C2 (some centres undefined) [US20250313563, Compound 952207]
28 | > 5000 nM | 100 to 1000 nM | CC[C@@]1(c2cccc(-c3cnn(CC(=O)N(C)C)c3)c2)C2=CN=NC2NC2=C1C(=O)NC(C)(C)C2 (some centres undefined) [US20250313563, Compound 952208]
29 | < 100 nM | < 100 nM | CC[C@@]1(c2cccc(-c3c([N+](=O)O)c(C)nn3C)c2)C2=CN=NC2NC2=C1C(=O)NC(C)(C)C2 (some centres undefined) [US20250313563, Compound 952209]
30 | 100 to 1000 nM | < 100 nM | CC[C@@]1(c2cccc(C(F)(F)F)c2)C2=CN=NC2NC2=C1C(=O)N(c1cnn(C)c1C)CC2 (some centres undefined) [US20250313563, Compound 952257]
31 | > 5000 nM | 1000 to 5000 nM | CC[C@@]1(c2cccc(-c3cc(-c4ccccc4)nn3C(C)C)c2)C2=CN=NC2NC2=C1C(=O)NC(C)(C)C2 (some centres undefined) [US20250313563, Compound 952411]
32 | 100 to 1000 nM | 100 to 1000 nM | CC1(C)CC(=O)C2=C(C1)NC1=C(CN=N1)[C@@]21CC[C@H](C(F)(F)F)C1 [US20250313563, Compound 952434]
33 | 100 to 1000 nM | < 100 nM | CC1(C)CC(=O)C2=C(C1)NC1=C(CN=N1)[C@]21CC[C@H](C(F)(F)F)C1 [US20250313563, Compound 952435]
34 | 100 to 1000 nM | 100 to 1000 nM | CC1(C)CC(=O)C2=C(C1)NC1=C(CN=N1)[C@]21CC[C@@H](C(F)(F)F)C1 [US20250313563, Compound 952437]
35 | > 5000 nM | 1000 to 5000 nM | CC[C@]1(c2cccc(C(F)(F)F)c2)C2=CN=NC2NC2=C1C(=O)N(c1cn(C)c(C)n1)CC2 (some centres undefined) [US20250313563, Compound 952478]
36 | 100 to 1000 nM | < 100 nM | CCC1(c2cccc(-c3ccnc4c3CCC4)c2)C2=C(N=NC2)NC2=C1C(=O)C(C)(C)C2 (centres undefined) [US20250313563, Compound 952557]
37 | 100 to 1000 nM | 100 to 1000 nM | CCc1cc(-c2cccc([C@]3(CC)C4=CN=NC4NC4=C3C(=O)NC(C)(C)C4)c2)n(C)n1 (some centres undefined) [US20250313563, Compound 952561]
38 | > 5000 nM | 1000 to 5000 nM | CC[C@@]1(c2cccc(-c3c(F)cncc3OC)c2)C2=C(N=NC2)NC2=C1C(=O)C(C)(C)C2 [US20250313563, Compound 952562]
39 | 1000 to 5000 nM | 100 to 1000 nM | CC[C@@]1(c2cccc(-c3cnn(-c4ccccn4)c3)c2)C2=CN=NC2NC2=C1C(=O)NC(C)(C)C2 (some centres undefined) [US20250313563, Compound 952566]
40 | 100 to 1000 nM | < 100 nM | CC[C@]1(c2cccc(C(F)(F)F)c2)C2=CN=NC2NC2=C1C(=O)N(c1cscn1)CC2 (some centres undefined) [US20250313563, Compound 952629]
41 | 100 to 1000 nM | < 100 nM | CC[C@]1(c2cccc(C(F)(F)F)c2)C2=CN=NC2NC2=C1C(=O)N(c1ccsc1)CC2 (some centres undefined) [US20250313563, Compound 952630]
42 | 100 to 1000 nM | < 100 nM | CCC1(c2cccc(-c3ccnc4c3CCCC4)c2)C2=C(N=NC2)NC2=C1C(=O)C(C)(C)C2 (centres undefined) [US20250313563, Compound 952752]
43 | 100 to 1000 nM | < 100 nM | CC[C@@]1(c2cccc(-c3ccnc(OC)c3Cl)c2)C2=CN=NC2NC2=C1C(=O)NC(C)(C)C2 (some centres undefined) [US20250313563, Compound 952754]
44 | 100 to 1000 nM | < 100 nM | CC[C@@]1(c2cccc(-c3ccnc4cc(F)cnc34)c2)C2=CN=NC2NC2=C1C(=O)NC(C)(C)C2 (some centres undefined) [US20250313563, Compound 952758]
45 | 100 to 1000 nM | < 100 nM | CC[C@@]1(c2cccc(C3=C4CC=CC(C)=C4N=CC3)c2)C2=CN=NC2NC2=C1C(=O)NC(C)(C)C2 (some centres undefined) [US20250313563, Compound 952909]
46 | > 5000 nM | 100 to 1000 nM | CC[C@@]1(c2cccc(-c3cnn(-c4ccncc4)c3)c2)C2=CN=NC2NC2=C1C(=O)NC(C)(C)C2 (some centres undefined) [US20250313563, Compound 952912]
47 | 100 to 1000 nM | < 100 nM | CC[C@@]1(c2cccc(-c3ccnc4c3cnn4C)c2)C2=CN=NC2NC2=C1C(=O)NC(C)(C)C2 (some centres undefined) [US20250313563, Compound 952913]
48 | 1000 to 5000 nM | 100 to 1000 nM | CC[C@@]1(c2ccccc2)C2=CN=NC2NC2=C1C(=O)[C@@H](F)C(C)(C)C2 (some centres undefined) [US20250313563, Compound 957403]
49 | 1000 to 5000 nM | 100 to 1000 nM | CC[C@]1(c2ccccc2)C2=CN=NC2NC2=C1C(=O)[C@@H](F)C(C)(C)C2 (some centres undefined) [US20250313563, Compound 957405]
50 | 1000 to 5000 nM | 100 to 1000 nM | CC[C@]1(c2cccc(-c3cnn(C)c3)c2)C2=CN=NC2NC2=C1C(=O)CC(C)(C)[C@@H]2F (some centres undefined) [US20250313563, Compound 957504]
51 | < 100 nM and 1000 to 5000 nM | < 100 nM | CC[C@]1(c2cccc(-c3ccnn3C)c2)C2=CN=NC2NC2=C1C(=O)CC(C)(C)[C@H]2F (some centres undefined) [US20250313563, Compound 957507]
52 | 100 to 1000 nM | < 100 nM | CC[C@]1(c2cccc(C(F)(F)F)c2)C2=C(CC(C)(C)NC2=O)NC2N=NC(F)=C21 (some centres undefined) [US20250313563, Compound 957518]
